Experimental data reported in PubChem BioAssay AID272 (DTP/NCI, 2004).
Results filed as inconclusive are left out. Residues, ends and D or L forms follow the SMILES beside them. *: point of attachment. Trt = c1ccc(C(c2ccccc2)(c2ccccc2)*)cc1; Cbz = O=C(OCc1ccccc1)*; Bn = c1ccc(C*)cc1; βAla = NCCC(=O)O

Tested on: Lewis lung carcinoma i.m., BDF1 mice, T/C %
Experiment: NCI In Vivo Anticancer Drug Screen. Data for tumor model Lewis Lung Carcinoma (intramuscular) in B6D2F1 (BDF1) mice
Outline: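 Transplantable tumour model; readout survival or tumour size; value = treated (T) / vehicle control (C).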

[1] = endpoint: mean tumor weight (est.), dose: 0.25 mg/kg/injection, schedule: Q01DX011 (ip), vehicle: saline, higher = larger tumour
[2] = endpoint: mean tumor weight (est.), dose: 0.5 mg/kg/injection, schedule: Q01DX011 (ip), vehicle: saline, higher = larger tumour

COc1cc([C@@H]2c3cc4c(c(O)c3C[C@H]3COC(=O)[C@@H]32)OCO4)cc(OC)c1O
T/C (endpoint: mean tumor weight (est.), dose: 0.12 mg/kg/injection, schedule: Q01DX011 (ip), vehicle: saline, higher = larger tumour): 99 % of control | T/C [1]: 94 % of control | T/C [2]: 66 % of control

CCCCCCCCCCCCCCCC(=O)OCC1OC(n2ccc(N)nc2=O)C(O)C1O (stereo not drawn)
T/C (endpoint: mean tumor weight (est.), dose: 7.5 mg/kg/injection, schedule: Q01DX009 (ip), vehicle: saline, higher = larger tumour): 76 % of control | T/C (endpoint: mean tumor weight (est.), dose: 15.0 mg/kg/injection, schedule: Q01DX009 (ip), vehicle: saline, higher = larger tumour): 39 % of control | T/C (endpoint: mean tumor weight (est.), dose: 25.0 mg/kg/injection, schedule: Q04DX003 (ip), vehicle: saline, higher = larger tumour): 67 % of control | T/C (endpoint: mean tumor weight (est.), dose: 37.5 mg/kg/injection, schedule: Q01DX001 (ip), vehicle: saline, higher = larger tumour): 45 % of control | T/C (endpoint: mean tumor weight (est.), dose: 50.0 mg/kg/injection, schedule: Q04DX003 (ip), vehicle: saline, higher = larger tumour): 19 % of control | T/C (endpoint: mean tumor weight (est.), dose: 75.0 mg/kg/injection, schedule: Q01DX001 (ip), vehicle: saline, higher = larger tumour): 19 % of control | T/C (endpoint: mean tumor weight (est.), dose: 150.0 mg/kg/injection, schedule: Q01DX001 (ip), vehicle: saline, higher = larger tumour): 46 % of control | T/C (endpoint: median survival time, dose: 37.5 mg/kg/injection, schedule: Q01DX001 (ip), vehicle: saline, higher = longer survival): 93 % of control | T/C (endpoint: median survival time, dose: 150.0 mg/kg/injection, schedule: Q01DX001 (ip), vehicle: saline, higher = longer survival): 113 % of control

CSc1nc(N)cc(NC(=O)CCl)n1
T/C (endpoint: mean tumor weight (est.), dose: 25.0 mg/kg/injection, schedule: Q01DX011 (ip), vehicle: saline, higher = larger tumour): 92 % of control | T/C (endpoint: mean tumor weight (est.), dose: 50.0 mg/kg/injection, schedule: Q01DX011 (ip), vehicle: saline, higher = larger tumour): 69 % of control | T/C (endpoint: mean tumor weight (est.), dose: 100.0 mg/kg/injection, schedule: Q01DX011 (ip), vehicle: saline, higher = larger tumour): 35 % of control

CN=C1N[N+]2=CCCCC2S1 (stereo not drawn)
T/C (endpoint: median survival time, dose: 40.0 mg/kg/injection, schedule: Q02DX011 (ip), vehicle: saline with Tween-80, higher = longer survival): 99 % of control | T/C (endpoint: median survival time, dose: 60.0 mg/kg/injection, schedule: Q02DX011 (ip), vehicle: saline with Tween-80, higher = longer survival): 86 % of control | T/C (endpoint: median survival time, dose: 80.0 mg/kg/injection, schedule: Q02DX011 (ip), vehicle: saline with Tween-80, higher = longer survival): 93 % of control

CC(C)S(=O)(=O)/C(Cl)=C(/Cl)C(Cl)=C(Cl)Cl
T/C (endpoint: mean tumor weight, dose: 25.0 mg/kg/injection, schedule: Q01DX011 (ip), vehicle: sodium bicarbonate, higher = larger tumour): 111 % of control | T/C (endpoint: mean tumor weight, dose: 50.0 mg/kg/injection, schedule: Q01DX011 (ip), vehicle: sodium bicarbonate, higher = larger tumour): 117 % of control | T/C (endpoint: mean tumor weight, dose: 100.0 mg/kg/injection, schedule: Q01DX011 (ip), vehicle: sodium bicarbonate, higher = larger tumour): 100 % of control | T/C (endpoint: median survival time, dose: 50.0 mg/kg/injection, schedule: Q01DX011 (ip), vehicle: sodium bicarbonate, higher = longer survival): 87 % of control

COc1cc([C@@H]2c3cc4c(cc3[C@@H](OC3OC5CO[C@@H](c6cccs6)OC5C(O)C3O)[C@H]3COC(=O)[C@H]23)OCO4)cc(OC)c1O (stereo partly drawn)
T/C [1]: 98 % of control | T/C [2]: 74 % of control | T/C (endpoint: mean tumor weight (est.), dose: 1.0 mg/kg/injection, schedule: Q01DX011 (ip), vehicle: saline, higher = larger tumour): 68 % of control | T/C (endpoint: mean tumor weight (est.), dose: 2.0 mg/kg/injection, schedule: Q01DX011 (ip), vehicle: saline, higher = larger tumour): 45 % of control | T/C (endpoint: median survival time, dose: 0.25 mg/kg/injection, schedule: Q01DX011 (ip), vehicle: saline, higher = longer survival): 118 % of control | T/C (endpoint: median survival time, dose: 0.5 mg/kg/injection, schedule: Q01DX011 (ip), vehicle: saline, higher = longer survival): 104 % of control | T/C (endpoint: median survival time, dose: 1.0 mg/kg/injection, schedule: Q01DX011 (ip), vehicle: saline, higher = longer survival): 106 % of control | T/C (endpoint: median survival time, dose: 2.0 mg/kg/injection, schedule: Q01DX011 (ip), vehicle: saline, higher = longer survival): 114 % of control | T/C (endpoint: median survival time, dose: 2.0 mg/kg/injection, schedule: Q04DX003 (ip), vehicle: saline, higher = longer survival): 104 % of control | T/C (endpoint: median survival time, dose: 4.0 mg/kg/injection, schedule: Q04DX003 (ip), vehicle: saline, higher = longer survival): 105 % of control | T/C (endpoint: median survival time, dose: 8.0 mg/kg/injection, schedule: Q04DX003 (ip), vehicle: saline, higher = longer survival): 115 % of control | T/C (endpoint: median survival time, dose: 32.0 mg/kg/injection, schedule: Q04DX003 (ip), vehicle: saline, higher = longer survival): 37 % of control

O=C(O)C1CSCN1 (stereo not drawn)
T/C (endpoint: median survival time, dose: 12.5 mg/kg/injection, schedule: Q01DX011 (ip), vehicle: saline, higher = longer survival): 118 % of control | T/C (endpoint: median survival time, dose: 25.0 mg/kg/injection, schedule: Q01DX011 (ip), vehicle: saline, higher = longer survival): 105 % of control | T/C (endpoint: median survival time, dose: 50.0 mg/kg/injection, schedule: Q01DX011 (ip), vehicle: saline, higher = longer survival): 97 % of control | T/C (endpoint: median survival time, dose: 100.0 mg/kg/injection, schedule: Q01DX011 (ip), vehicle: saline, higher = longer survival): 105 % of control

CCCCCCC(=O)O[C@H]1CC[C@H]2[C@@H]3CCC4=CC(=O)CC[C@]4(C)[C@H]3CC[C@]12C
T/C (endpoint: median survival time, dose: 20.0 mg/kg/injection, schedule: Q01DX009 (ip), vehicle: Klucel (hydroxypropylcellulose) (HPC), higher = longer survival): 94 % of control | T/C (endpoint: median survival time, dose: 40.0 mg/kg/injection, schedule: Q01DX009 (ip), vehicle: Klucel (hydroxypropylcellulose) (HPC), higher = longer survival): 90 % of control | T/C (endpoint: median survival time, dose: 80.0 mg/kg/injection, schedule: Q01DX009 (ip), vehicle: Klucel (hydroxypropylcellulose) (HPC), higher = longer survival): 91 % of control | T/C (endpoint: median survival time, dose: 160.0 mg/kg/injection, schedule: Q01DX009 (ip), vehicle: Klucel (hydroxypropylcellulose) (HPC), higher = longer survival): 110 % of control

CC1OC(O[C@@H]2C=C3CC[C@@H]4[C@H](CC[C@]5(C)[C@@H](c6ccc(=O)oc6)CC[C@]45O)[C@@]3(C)CC2)C(O)C(O)C1O (stereo partly drawn)
T/C (endpoint: mean tumor weight, dose: 0.31 mg/kg/injection, schedule: Q01DX011 (ip), vehicle: steriod suspending solution, higher = larger tumour): 92 % of control | T/C (endpoint: mean tumor weight, dose: 0.62 mg/kg/injection, schedule: Q01DX011 (ip), vehicle: steriod suspending solution, higher = larger tumour): 114 % of control | T/C (endpoint: mean tumor weight, dose: 1.25 mg/kg/injection, schedule: Q01DX011 (ip), vehicle: steriod suspending solution, higher = larger tumour): 36 % of control | T/C (endpoint: mean tumor weight, dose: 2.5 mg/kg/injection, schedule: Q01DX011 (ip), vehicle: steriod suspending solution, higher = larger tumour): 50 % of control | T/C (endpoint: median survival time, dose: 0.31 mg/kg/injection, schedule: Q01DX011 (ip), vehicle: steriod suspending solution, higher = longer survival): 122 % of control | T/C (endpoint: median survival time, dose: 1.25 mg/kg/injection, schedule: Q01DX011 (ip), vehicle: steriod suspending solution, higher = longer survival): 113 % of control | T/C (endpoint: median survival time, dose: 2.5 mg/kg/injection, schedule: Q01DX011 (ip), vehicle: steriod suspending solution, higher = longer survival): 119 % of control

Nc1ncnc2c1ccn2C1OC(CO)C(O)C1O (stereo not drawn)
T/C (endpoint: median survival time, dose: 0.1 mg/kg/injection, schedule: Q01DX011 (ip), vehicle: steriod suspending solution, higher = longer survival): 90 % of control | T/C (endpoint: median survival time, dose: 0.19 mg/kg/injection, schedule: Q01DX011 (ip), vehicle: steriod suspending solution, higher = longer survival): 101 % of control | T/C (endpoint: median survival time, dose: 0.25 mg/kg/injection, schedule: Q01DX011 (ip), vehicle: carboxymethylcellulose (CMC), higher = longer survival): 106 % of control | T/C (endpoint: median survival time, dose: 0.38 mg/kg/injection, schedule: Q01DX011 (ip), vehicle: steriod suspending solution, higher = longer survival): 92 % of control | T/C (endpoint: median survival time, dose: 0.5 mg/kg/injection, schedule: Q01DX009 (ip), vehicle: Klucel (hydroxypropylcellulose) (HPC), higher = longer survival): 98 % of control | T/C (endpoint: median survival time, dose: 0.5 mg/kg/injection, schedule: Q01DX011 (ip), vehicle: carboxymethylcellulose (CMC), higher = longer survival): 100 % of control | T/C (endpoint: median survival time, dose: 0.75 mg/kg/injection, schedule: Q01DX011 (ip), vehicle: steriod suspending solution, higher = longer survival): 86 % of control | T/C (endpoint: median tumor weight (est.), dose: 0.1 mg/kg/injection, schedule: Q01DX011 (ip), vehicle: steriod suspending solution, higher = larger tumour): 70 % of control | T/C (endpoint: median tumor weight (est.), dose: 0.19 mg/kg/injection, schedule: Q01DX011 (ip), vehicle: steriod suspending solution, higher = larger tumour): 96 % of control | T/C (endpoint: median tumor weight (est.), dose: 0.38 mg/kg/injection, schedule: Q01DX011 (ip), vehicle: steriod suspending solution, higher = larger tumour): 70 % of control | T/C (endpoint: median tumor weight (est.), dose: 0.75 mg/kg/injection, schedule: Q01DX011 (ip), vehicle: steriod suspending solution, higher = larger tumour): 84 % of control

COC(=O)C(CSC(c1ccccc1)(c1ccccc1)c1ccccc1)NC(=O)C(CSCc1ccccc1)NC(=O)CCNC(=O)OCc1ccccc1 (stereo not drawn) ({Cbz-βAla}-Cys(Bn)-Cys(Trt)-OMe; configuration not given here)
T/C (endpoint: median survival time, dose: 4.0 mg/kg/injection, schedule: Q01DX009 (ip), vehicle: Klucel (hydroxypropylcellulose) (HPC), higher = longer survival): 121 % of control | T/C (endpoint: median survival time, dose: 32.0 mg/kg/injection, schedule: Q01DX009 (ip), vehicle: Klucel (hydroxypropylcellulose) (HPC), higher = longer survival): 171 % of control | T/C (endpoint: median survival time, dose: 64.0 mg/kg/injection, schedule: Q01DX009 (ip), vehicle: Klucel (hydroxypropylcellulose) (HPC), higher = longer survival): 161 % of control
